According to the supplement of paper PMC4862054:
Where “and” joins values, the source holds several entries; their conditions need not be identical. Equal entries are not always repeated.

Tests used:
Details in all cases: incubation time: 72 h
[1] = tested on: MDA-MB-231; experiment: drug sensitivity score (DSS), CellTox Green (DSS (AUC-based score)); higher = stronger drug effect (viability inhibition or cytotoxicity); extreme values may be limits of the assay
Summary of the method: (§1)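 Compound was dispensed into 384-well plates at 5 concentrations in 10-fold steps spanning a 10,000-fold range chosen for each compound, and 20 µl of breast cancer cell suspension was added before 72 h of incubation. CellTox Green fluorescence was read at 485/520 nm, followed by CellTiter-Glo luminescence after 10 min at room temperature. Values on each plate were normalised to 0.1 % DMSO and a positive kill control. The drug sensitivity score came from the area under the fitted dose-response curve.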

[2] = tested on: MDA-MB-453; experiment: as above
Summary of the method: as §1

[3] = tested on: HCC1599; experiment: as above
Summary of the method: as §1

[4] = tested on: CAL-148; experiment: as above
Summary of the method: as §1

[5] = tested on: MFM-223; experiment: as above
Summary of the method: as §1

[6] = tested on: HDQ-P1; experiment: as above
Summary of the method: as §1

[7] = tested on: CAL-85-1; experiment: as above
Summary of the method: as §1

[8] = tested on: DU-4475; experiment: as above
Summary of the method: as §1

[9] = tested on: MDA-MB-436; experiment: as above
Summary of the method: as §1

[10] = tested on: CAL-51; experiment: as above
Summary of the method: as §1

[11] = tested on: MDA-MB-231; experiment: normalised viability (% of control), CellTiter-Blue; higher = more viable cells (100 = DMSO, 0 = benzethonium chloride kill control)
Protocol: (§2)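 DSRT, CellTiter-Blue viability, 72 h incubation. Signal is normalised to DMSO and benzethonium chloride controls. Value is the normalised response at dose 1.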

[12] = tested on: MDA-MB-453; experiment: as above
Protocol: as §2

[13] = tested on: HCC1599; experiment: as above
Protocol: as §2

[14] = tested on: BT-474; experiment: as above
Protocol: as §2

[15] = tested on: SK-BR-3; experiment: as above
Protocol: as §2

[16] = tested on: MDA-MB-468; experiment: as above
Protocol: as §2

[17] = tested on: HCC1143; experiment: as above
Protocol: as §2

[18] = tested on: HCC1937; experiment: as above
Protocol: as §2

[19] = tested on: Hs578T; experiment: as above
Protocol: as §2

[20] = tested on: CAL-148; experiment: as above
Protocol: as §2

[21] = tested on: MFM-223; experiment: as above
Protocol: as §2

[22] = tested on: BT-549; experiment: as above
Protocol: as §2

[23] = tested on: HDQ-P1; experiment: as above
Protocol: as §2

[24] = tested on: CAL-85-1; experiment: as above
Protocol: as §2

[25] = tested on: DU-4475; experiment: as above
Protocol: as §2

[26] = tested on: CAL-120; experiment: as above
Protocol: as §2

[27] = tested on: MDA-MB-436; experiment: as above
Protocol: as §2

[28] = tested on: CAL-51; experiment: as above
Protocol: as §2

`Cc1c(Cn2c(C)nc3c(C(=O)O)cc(N4CCOCC4)cc32)cccc1C(F)(F)F` was tested, and the drug sensitivity score [1] was 0, the drug sensitivity score [2] was 0 and the drug sensitivity score [3] was 0. The drug sensitivity score [4] was 0, the drug sensitivity score [5] was 0 and the drug sensitivity score [6] was 0. It also gave a drug sensitivity score [7] of 0, a drug sensitivity score [8] of 0 and a drug sensitivity score [9] of 0. It also gave a drug sensitivity score [10] of 0.

Molecule `Cc1cccc(-c2nn3c(c2-c2ccnc4ccc(C(N)=O)cc24)CCC3)n1` has a normalised viability ([11]; 0.1 nM) of 113%, a normalised viability ([12]; 0.1 nM) of 108% and a normalised viability ([13]; 0.1 nM) of 99.3%. The normalised viability ([14]; 0.1 nM) was 116%, the normalised viability ([15]; 0.1 nM) was 106% and the normalised viability ([16]; 0.1 nM) was 108%. It also gave a normalised viability ([17]; 0.1 nM) of 110%, a normalised viability ([18]; 0.1 nM) of 91.3% and a normalised viability ([19]; 0.1 nM) of 113%. The normalised viability ([20]; 0.1 nM) was 104%, the normalised viability ([21]; 0.1 nM) was 103% and the normalised viability ([22]; 0.1 nM) was 104%. It also gave a normalised viability ([23]; 0.1 nM) of 109%, a normalised viability ([24]; 0.1 nM) of 92.6% and a normalised viability ([25]; 0.1 nM) of 113%. It also gave a normalised viability ([26]; 0.1 nM) of 98.2%, a normalised viability ([27]; 0.1 nM) of 128% and a normalised viability ([28]; 0.1 nM) of 93.5%.

`Cn1cc(CNCC2CCN(c3ncc(C(=O)NO)cn3)CC2)c2ccccc21` showed a normalised viability ([11]; 0.1 nM) of 95.6%, a normalised viability ([12]; 0.1 nM) of 98.8% and a normalised viability ([13]; 0.1 nM) of 101%. For the same molecule, the normalised viability ([14]; 0.1 nM) was 98.1%, the normalised viability ([15]; 0.1 nM) was 97.5% and the normalised viability ([16]; 0.1 nM) was 91.1%. It also gave a normalised viability ([17]; 0.1 nM) of 95.7%, a normalised viability ([18]; 0.1 nM) of 106% and a normalised viability ([19]; 0.1 nM) of 120%. It also gave a normalised viability ([20]; 0.1 nM) of 103%, a normalised viability ([21]; 0.1 nM) of 89.5% and a normalised viability ([22]; 0.1 nM) of 88.6%. It also gave a normalised viability ([23]; 0.1 nM) of 83.6%, a normalised viability ([24]; 0.1 nM) of 84.9% and a normalised viability ([25]; 0.1 nM) of 97.6%. The normalised viability ([26]; 0.1 nM) was 89.2%, the normalised viability ([27]; 0.1 nM) was 87.9% and the normalised viability ([28]; 0.1 nM) was 105%.

`O=C(NC[C@H](O)CO)c1ccncc1Nc1ccc(I)cc1F` showed a normalised viability ([11]; 1 nM) of 92.5%, a normalised viability ([12]; 1 nM) of 87.9% and a normalised viability ([13]; 1 nM) of 108%. It also gave a normalised viability ([14]; 1 nM) of 96.8%, a normalised viability ([15]; 1 nM) of 92.1% and a normalised viability ([16]; 1 nM) of 104%. The normalised viability ([17]; 1 nM) was 87.6%, the normalised viability ([18]; 1 nM) was 87.6% and the normalised viability ([19]; 1 nM) was 111%. The normalised viability ([20]; 1 nM) was 92.3%, the normalised viability ([21]; 1 nM) was 97.9% and the normalised viability ([22]; 1 nM) was 111%. For the same molecule, the normalised viability ([23]; 1 nM) was 103%, the normalised viability ([24]; 1 nM) was 92.1% and the normalised viability ([25]; 1 nM) was 92.6%. For the same molecule, the normalised viability ([26]; 1 nM) was 81.3%, the normalised viability ([27]; 1 nM) was 124% and the normalised viability ([28]; 1 nM) was 99.6%.

`Nc1nc(=O)c2c([nH]1)NCC(CNc1ccc(C(=O)N[C@@H](CCC(=O)O)C(=O)O)cc1)N2C=O` (mixture of isomers) [Folinic acid] gave a normalised viability ([11]; 0.099 nM) of 101%, a normalised viability ([12]; 0.099 nM) of 104% and a normalised viability ([13]; 0.099 nM) of 117%. The normalised viability ([14]; 0.099 nM) was 91.7%, the normalised viability ([15]; 0.099 nM) was 112% and the normalised viability ([16]; 0.099 nM) was 117%. For the same molecule, the normalised viability ([17]; 0.099 nM) was 107%, the normalised viability ([18]; 0.099 nM) was 95.9% and the normalised viability ([19]; 0.099 nM) was 105%. It also gave a normalised viability ([20]; 0.099 nM) of 102%, a normalised viability ([21]; 0.099 nM) of 105% and a normalised viability ([22]; 0.099 nM) of 94.1%. It also gave a normalised viability ([23]; 0.099 nM) of 131%, a normalised viability ([24]; 0.099 nM) of 98.4% and a normalised viability ([25]; 0.099 nM) of 113%. The normalised viability ([26]; 0.099 nM) was 95.4%, the normalised viability ([27]; 0.099 nM) was 113% and the normalised viability ([28]; 0.099 nM) was 92.7%.

`CC/C(=C(\c1ccc(O)cc1)c1ccc(OCCN(C)C)cc1)c1ccccc1` [4-hydroxytamoxifen] gave a drug sensitivity score [1] of 4.16, a drug sensitivity score [2] of 1 and a drug sensitivity score [3] of 0. It also gave a drug sensitivity score [4] of 0, a drug sensitivity score [5] of 0 and a drug sensitivity score [6] of 0. It also gave a drug sensitivity score [7] of 1.62, a drug sensitivity score [8] of 0 and a drug sensitivity score [9] of 0.732. The drug sensitivity score [10] was 0.

Molecule `CCCCC/C=C/C=C1/C(=O)C=C[C@@H]1C/C=C\CCCC(=O)O` [15D-PGJ2] has a drug sensitivity score [1] of 0, a drug sensitivity score [2] of 0 and a drug sensitivity score [3] of 0. The drug sensitivity score [4] was 0, the drug sensitivity score [5] was 0 and the drug sensitivity score [6] was 0. The drug sensitivity score [7] was 0, the drug sensitivity score [8] was 0 and the drug sensitivity score [9] was 0. For the same molecule, the drug sensitivity score [10] was 0.

Work on `CC(=O)OC[C@H]1O[C@@H]([S-])[C@H](OC(C)=O)[C@@H](OC(C)=O)[C@@H]1OC(C)=O.CCP(CC)CC.[Au+]` [Auranofin] yielded a drug sensitivity score [1] of 3.16, a drug sensitivity score [2] of 1.98 and a drug sensitivity score [3] of 0. For the same molecule, the drug sensitivity score [4] was 0.881, the drug sensitivity score [5] was 1.22 and the drug sensitivity score [6] was 6.27. For the same molecule, the drug sensitivity score [7] was 4.88, the drug sensitivity score [8] was 0 and the drug sensitivity score [9] was 0. It also gave a drug sensitivity score [10] of 3.46.

`Cc1nc(Nc2ncc(C(=O)Nc3c(C)cccc3Cl)s2)cc(N2CCN(CCO)CC2)n1` [Dasatinib] gave a drug sensitivity score [1] of 4.62, a drug sensitivity score [2] of 0 and a drug sensitivity score [3] of 0. The drug sensitivity score [4] was 0, the drug sensitivity score [5] was 0 and the drug sensitivity score [6] was 0. For the same molecule, the drug sensitivity score [7] was 6.5, the drug sensitivity score [8] was 0 and the drug sensitivity score [9] was 0. The drug sensitivity score [10] was 6.25, the normalised viability ([11]; 0.1 nM) was 110% and 86.5% and the normalised viability ([12]; 0.1 nM) was 103% and 97.2%. The normalised viability ([13]; 0.1 nM) was 106% and 88.6%, the normalised viability ([14]; 0.1 nM) was 97.5% and 85.4% and the normalised viability ([15]; 0.1 nM) was 98.2% and 92.7%. For the same molecule, the normalised viability ([16]; 0.1 nM) was 109% and 100%, the normalised viability ([17]; 0.1 nM) was 102% and 84.5% and the normalised viability ([19]; 0.1 nM) was 107% and 97.2%. The normalised viability ([20]; 0.1 nM) was 104% and 96.1%, the normalised viability ([21]; 0.1 nM) was 99.2% and 94.2% and the normalised viability ([22]; 0.1 nM) was 101% and 89.2%. For the same molecule, the normalised viability ([23]; 0.1 nM) was 126% and 109%, the normalised viability ([24]; 0.1 nM) was 97.2% and 88.5% and the normalised viability ([25]; 0.1 nM) was 109% and 110%. The normalised viability ([26]; 0.1 nM) was 104% and 85.6%, the normalised viability ([27]; 0.1 nM) was 94.8% and 91.2% and the normalised viability ([28]; 0.1 nM) was 105% and 114%.
